Assay results reported in US5444151A, “Platelet derived growth factor antagonists” (Ludwig Institute for Cancer Research, priority 1992, dated 1995).
“Also recorded” adds a separate entry of the source. Read-outs that look alike come from different tables or passages of the source. Numbered stars: 1 amine (or outer) side, 2 acyl side, 3 side chain; on linkers, the order of the positions; unused ones are H or OH. Square brackets hold non-standard residues; d marks the D form. Ends that are not written are not given here. Peptide text beside a SMILES is read from it. X2 = O=C([C@H](Cc1c(Sc2ccccc2[N+](=O)[O-])[nH]c2ccccc12)N[*:1])[*:2]

Legend:
PDGF-β receptor [1] = target: T1, PDGF-β receptor (Homo sapiens, UniProt P09619); experiment: Competition with 125I-PDGF-BB for binding to AG1518 fibroblasts (α receptor down regulated by PDGF-AA preincubation)
T1 construct: cultures of human foreskin fibroblast cell line AG1518; endogenous in cells; host or cells: AG1518 human foreskin fibroblasts (Human Mutant Cell Repository)
Protocol: (§1) In order to test for receptor binding, cultures of human foreskin fibroblast cell line AG1518 (obtained from the Human Mutant Cell Repository), were grown to confluence in Ham's F-12 medium containing 10% newborn calf serum. Those cells which were to be used in analysis of PDGF-β receptor binding were preincubated for 60 minutes at 37° C. in 0.5 ml/well of Ham's F-12 medium, supplemented with 1 mg/ml of bovine serum albumin (BSA), and 50 ng/ml of PDGF-AA. This combination down regulates PDGF-α receptor, as per Claesson-Welsh et al., J. Biol. Chem. 264: 1742-1747 (1989).
(§2) Cells were prepared for receptor binding analyses by washing with ice cold binding buffer (phosphate buffered saline with 0.9 mM CaCl2, 0.49 mM MgSO4 and 1 mg/ml BSA). The cells were then incubated on ice for 90 minutes with different concentrations (0-100 ug/ml) of synthetic peptides (listed in Table 1, infra), in 0.5 ml of binding buffer per well. […] The labelled ligand was added and then incubated for 60 minutes at 0° C. after which the cells were washed five times with ice cold binding buffer. The washed cells were then lysed for 60 minutes at room temperature in a lysis buffer (1% Triton X-100, 10% glycerol, 20 mM Tris-HCl, pH 7.5). Solubilized radioactivity was determined in a gamma counter. Competing activities of synthetic peptides were compared to standard curves, using unlabelled ligand.
In Table 2, "+++" means <30 μM; "++" from 30-60 μM; "+" 60-150 μM; and "-", >150 μM.

[2] = test system: human foreskin fibroblasts; experiment: Ligand stimulated [3H]thymidine incorporation; type: cell-based; conditions: for [3H]thymidine incorporation, ligand alone: no peptide (unstimulated control 483 cpm); for [3H]thymidine incorporation, ligand alone / [3H]thymidine incorporation, Control / [3H]thymidine incorporation, EGF / [3H]thymidine incorporation, PDGF-AA / [3H]thymidine incorporation, PDGF-BB: mean of duplicates; for Effect on ligand stimulated [3H]thymidine incorporation (in words): PDGF-AA, PDGF-BB or EGF stimulation; for [3H]thymidine incorporation, Control / [3H]thymidine incorporation, EGF / [3H]thymidine incorporation, PDGF-AA / [3H]thymidine incorporation, PDGF-BB: peptide present; for [3H]thymidine incorporation, Control: no ligand; for [3H]thymidine incorporation, EGF: stimulated with EGF; for [3H]thymidine incorporation, PDGF-AA: stimulated with PDGF-AA; for [3H]thymidine incorporation, PDGF-BB: stimulated with PDGF-BB
Source text: The possible role of peptide 16T as an antagonist for PDGF activity in vivo was investigated. Following the methodology of Betsholtz et al., J. Cell Physiol 118: 203-210 (1984), the disclosure of which is incorporated by reference, [^3 H] thymidine incorporation by human fibroblasts in the presence of various peptides was studied.

PDGF-α receptor = target: T2, PDGF-α receptor (Homo sapiens, UniProt P16234); experiment: Competition with 125I-PDGF-AA for binding to AG1518 fibroblasts; conditions: for Receptor competing activity, PDGF-AA binding (in words): AG1518 cells
T2 construct: cultures of human foreskin fibroblast cell line AG1518; endogenous in cells; host or cells: AG1518 human foreskin fibroblasts
Protocol: as §1, §2

EGF receptor [3] = target: T3, EGF receptor (Homo sapiens, UniProt P00533); experiment: Competition with 125I-EGF for binding to AG1518 fibroblasts
T3 construct: cultures of human foreskin fibroblast cell line AG1518; endogenous in cells; host or cells: human foreskin fibroblasts (AG1518)
Protocol: as §1, §2

PDGF-β receptor [4] = target: T4, PDGF-β receptor (Sus scrofa, UniProt A0A8W4FFG6); experiment: Autophosphorylation and dimerization of partially purified PDGF-β receptor; type: biochemical, porcine
T4 construct: from Triton X-100 solubilized porcine uterus membranes and purified up to the Mono-Q chromatography step; from tissue; host or cells: porcine uterus membranes
Protocol: A preparation of PDGF-β receptor, from Triton X-100 solubilized porcine uterus membranes and purified up to the Mono-Q chromatography step of Ronnstrand et al., J. Biol. Chem. 262: 2929-2932 (1987), was made, and the autophosphorylation assay described therein was carried out.
Approximately 100 ng of the receptor was incubated for 5 minutes at 0° C. with peptide 16T or peptide 20, at different concentrations. […] Four ul of 150 μM [^32 P]ATP (containing 5×10^6 cpm of radioactivity) was added, followed by an additional 10 minutes of incubation at 0° C. Incorporation of radioactivity was terminated by adding 5 μl of 15 mM unlabelled ATP and 5 μl of 40 mM phenylphosphate. Samples were cross linked by incubating with 0.5 mM DSS (12.5 mM, in dimethyl sulfoxide) for 30 minutes at room temperature. The cross linking reaction was blocked by adding 50 mM methylammonium chloride, 20 mM Hepes, pH 7.4.

EGF receptor [5] = target: T3, EGF receptor; experiment: EGF induced receptor dimerization and autophosphorylation in intact cells; type: cell-based; conditions: EGF 300 ng/ml, intact fibroblasts
Protocol: (§3) Confluent human foreskin fibroblast cells were used (25 cm^2 dishes of cultures). The cells were washed twice with binding buffer, as described supra, with 1 mg/ml BSA added thereto. This was followed by 90 minutes of incubation with one of synthetic peptides 16, […], 20 and […] on ice. […] A dimerization assay was then carried out, basically following Eriksson et al., Growth Factors 6: 1-14 (1992). Essentially, receptors were cross linked for 20 minutes at room temperature in 1 mM BS^3 (Bis(sulfosuccinimidyl)suberate) in lysis buffer (0.5% Triton X-100, 0.5% deoxycholate, […], pH 7.4, 150 mM NaCl, 10 mM EDTA, 1 mM PMSF (phenylmethylsulfonyl fluoride), 1% Trasylol (aprotinin), 100 μM ortovandat, a phosphatase inhibitor). Cross linking was quenched by adding 70 mM methylammonium chloride for 10 minutes. Samples were then subjected to SDS gel electrophoresis in 4% slab gels, followed by electroblotting on to nitrocellulose membranes. The blocked membranes were incubated for two hours with affinity purified phosphotyrosine antibodies (Ek et al., J. Biol. Chem. 259: 1145-11152 (1984)), followed by three washes. Blots were then incubated for 45 minutes with peroxidase conjugated, affinity purified swine antirabbit IgG immunoglobulin. After an additional three washes, complexes were visualized using the ECL developing system.

PDGF receptors = experiment: PDGF-BB induced receptor dimerization and autophosphorylation in intact cells; type: cell-based, human; conditions: PDGF-BB 300 ng/ml, intact fibroblasts
Protocol: as §3

[6] = AG1518 cells, competing activity
[7] = read-out: Inhibitory Activity: ability to compete with PDGF-BB for binding (peptide needed to decrease binding by 50%), AG1518 cells, 0° C., asterisk = homogeneous peptide, otherwise crude
[8] = AG1518 cells, 0° C., asterisk = homogeneous peptide, otherwise crude

T1 sequence (P09619 33-1106): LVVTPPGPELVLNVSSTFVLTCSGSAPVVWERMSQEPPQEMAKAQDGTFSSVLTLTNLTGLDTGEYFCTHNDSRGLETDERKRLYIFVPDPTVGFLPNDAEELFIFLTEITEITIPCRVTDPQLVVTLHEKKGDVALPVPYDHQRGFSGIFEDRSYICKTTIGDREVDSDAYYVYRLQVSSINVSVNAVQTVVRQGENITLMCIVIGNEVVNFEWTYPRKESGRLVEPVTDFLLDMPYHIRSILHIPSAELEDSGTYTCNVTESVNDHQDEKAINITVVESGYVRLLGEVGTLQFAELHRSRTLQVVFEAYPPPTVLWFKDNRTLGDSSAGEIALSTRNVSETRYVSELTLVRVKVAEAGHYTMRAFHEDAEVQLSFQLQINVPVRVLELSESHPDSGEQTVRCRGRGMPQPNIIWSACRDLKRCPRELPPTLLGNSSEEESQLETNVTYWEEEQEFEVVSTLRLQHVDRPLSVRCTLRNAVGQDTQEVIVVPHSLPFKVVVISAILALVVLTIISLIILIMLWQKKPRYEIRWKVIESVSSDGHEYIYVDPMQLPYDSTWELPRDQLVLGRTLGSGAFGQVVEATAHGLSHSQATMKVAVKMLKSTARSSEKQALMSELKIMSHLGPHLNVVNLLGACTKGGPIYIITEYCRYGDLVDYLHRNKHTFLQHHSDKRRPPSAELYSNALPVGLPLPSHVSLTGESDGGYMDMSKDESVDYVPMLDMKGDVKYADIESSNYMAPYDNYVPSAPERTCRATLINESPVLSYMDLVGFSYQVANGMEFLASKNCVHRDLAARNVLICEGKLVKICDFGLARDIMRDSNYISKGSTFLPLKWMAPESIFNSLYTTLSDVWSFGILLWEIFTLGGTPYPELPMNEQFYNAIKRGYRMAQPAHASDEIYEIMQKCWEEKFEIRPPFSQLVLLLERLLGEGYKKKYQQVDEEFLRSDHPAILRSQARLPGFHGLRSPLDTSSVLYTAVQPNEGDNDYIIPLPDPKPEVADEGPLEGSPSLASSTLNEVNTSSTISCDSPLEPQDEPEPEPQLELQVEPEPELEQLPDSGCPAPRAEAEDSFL
T3 sequence (P00533 25-1210): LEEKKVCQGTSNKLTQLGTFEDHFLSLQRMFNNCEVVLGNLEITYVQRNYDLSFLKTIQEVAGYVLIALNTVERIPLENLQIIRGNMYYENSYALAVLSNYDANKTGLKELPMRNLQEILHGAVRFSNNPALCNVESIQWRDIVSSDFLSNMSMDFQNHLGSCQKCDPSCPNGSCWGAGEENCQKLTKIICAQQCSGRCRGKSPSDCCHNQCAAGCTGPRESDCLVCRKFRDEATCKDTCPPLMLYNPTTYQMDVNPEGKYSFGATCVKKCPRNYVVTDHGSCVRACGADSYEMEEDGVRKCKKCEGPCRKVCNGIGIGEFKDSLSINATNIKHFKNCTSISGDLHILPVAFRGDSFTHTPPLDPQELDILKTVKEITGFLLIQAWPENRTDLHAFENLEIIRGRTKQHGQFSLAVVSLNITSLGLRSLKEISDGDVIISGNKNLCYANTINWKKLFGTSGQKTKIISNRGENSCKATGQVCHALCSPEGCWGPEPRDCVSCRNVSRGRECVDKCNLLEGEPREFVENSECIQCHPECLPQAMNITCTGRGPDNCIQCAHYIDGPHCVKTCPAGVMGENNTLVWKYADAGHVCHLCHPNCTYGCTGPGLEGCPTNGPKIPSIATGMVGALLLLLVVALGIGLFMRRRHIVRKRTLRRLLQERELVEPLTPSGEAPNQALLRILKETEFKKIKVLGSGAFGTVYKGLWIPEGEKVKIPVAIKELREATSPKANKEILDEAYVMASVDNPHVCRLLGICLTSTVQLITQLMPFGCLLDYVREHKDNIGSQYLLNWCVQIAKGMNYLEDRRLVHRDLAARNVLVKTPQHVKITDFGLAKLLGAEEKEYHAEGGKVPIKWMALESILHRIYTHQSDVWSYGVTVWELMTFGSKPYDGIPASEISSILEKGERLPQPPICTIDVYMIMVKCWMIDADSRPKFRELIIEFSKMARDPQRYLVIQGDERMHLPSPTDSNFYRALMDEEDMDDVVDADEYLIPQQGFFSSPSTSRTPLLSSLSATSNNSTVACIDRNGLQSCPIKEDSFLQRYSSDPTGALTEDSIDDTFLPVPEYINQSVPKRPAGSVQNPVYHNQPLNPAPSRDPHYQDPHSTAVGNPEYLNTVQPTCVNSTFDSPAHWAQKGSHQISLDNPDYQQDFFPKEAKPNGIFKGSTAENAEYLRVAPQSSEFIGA
T2 sequence (P16234 24-1089): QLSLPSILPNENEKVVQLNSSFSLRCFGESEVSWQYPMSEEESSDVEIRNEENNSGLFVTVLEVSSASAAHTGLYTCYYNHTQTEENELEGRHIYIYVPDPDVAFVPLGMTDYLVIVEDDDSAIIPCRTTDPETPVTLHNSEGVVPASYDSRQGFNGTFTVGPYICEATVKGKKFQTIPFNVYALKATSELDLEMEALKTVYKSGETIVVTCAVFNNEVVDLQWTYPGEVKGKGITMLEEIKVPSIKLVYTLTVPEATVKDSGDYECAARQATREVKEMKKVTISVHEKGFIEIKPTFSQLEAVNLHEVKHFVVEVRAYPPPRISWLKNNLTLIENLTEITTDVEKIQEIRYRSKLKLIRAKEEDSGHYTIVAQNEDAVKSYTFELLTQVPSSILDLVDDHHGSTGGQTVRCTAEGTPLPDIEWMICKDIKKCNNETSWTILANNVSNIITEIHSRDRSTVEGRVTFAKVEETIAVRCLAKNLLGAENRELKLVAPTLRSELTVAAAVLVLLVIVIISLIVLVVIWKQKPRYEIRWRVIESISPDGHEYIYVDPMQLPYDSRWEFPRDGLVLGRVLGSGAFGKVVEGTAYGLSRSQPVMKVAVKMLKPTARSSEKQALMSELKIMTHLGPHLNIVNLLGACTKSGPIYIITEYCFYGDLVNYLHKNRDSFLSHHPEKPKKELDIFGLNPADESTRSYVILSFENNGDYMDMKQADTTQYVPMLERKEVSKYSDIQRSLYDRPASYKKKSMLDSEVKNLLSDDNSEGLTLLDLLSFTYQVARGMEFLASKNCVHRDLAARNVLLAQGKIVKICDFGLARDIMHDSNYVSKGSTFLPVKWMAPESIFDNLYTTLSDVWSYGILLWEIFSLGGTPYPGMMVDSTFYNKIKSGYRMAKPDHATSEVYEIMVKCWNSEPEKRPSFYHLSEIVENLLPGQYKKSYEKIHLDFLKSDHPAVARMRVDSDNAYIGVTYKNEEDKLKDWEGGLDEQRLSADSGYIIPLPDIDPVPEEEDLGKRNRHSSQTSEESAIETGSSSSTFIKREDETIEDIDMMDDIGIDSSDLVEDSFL
T4 sequence (A0A8W4FFG6 32-1102): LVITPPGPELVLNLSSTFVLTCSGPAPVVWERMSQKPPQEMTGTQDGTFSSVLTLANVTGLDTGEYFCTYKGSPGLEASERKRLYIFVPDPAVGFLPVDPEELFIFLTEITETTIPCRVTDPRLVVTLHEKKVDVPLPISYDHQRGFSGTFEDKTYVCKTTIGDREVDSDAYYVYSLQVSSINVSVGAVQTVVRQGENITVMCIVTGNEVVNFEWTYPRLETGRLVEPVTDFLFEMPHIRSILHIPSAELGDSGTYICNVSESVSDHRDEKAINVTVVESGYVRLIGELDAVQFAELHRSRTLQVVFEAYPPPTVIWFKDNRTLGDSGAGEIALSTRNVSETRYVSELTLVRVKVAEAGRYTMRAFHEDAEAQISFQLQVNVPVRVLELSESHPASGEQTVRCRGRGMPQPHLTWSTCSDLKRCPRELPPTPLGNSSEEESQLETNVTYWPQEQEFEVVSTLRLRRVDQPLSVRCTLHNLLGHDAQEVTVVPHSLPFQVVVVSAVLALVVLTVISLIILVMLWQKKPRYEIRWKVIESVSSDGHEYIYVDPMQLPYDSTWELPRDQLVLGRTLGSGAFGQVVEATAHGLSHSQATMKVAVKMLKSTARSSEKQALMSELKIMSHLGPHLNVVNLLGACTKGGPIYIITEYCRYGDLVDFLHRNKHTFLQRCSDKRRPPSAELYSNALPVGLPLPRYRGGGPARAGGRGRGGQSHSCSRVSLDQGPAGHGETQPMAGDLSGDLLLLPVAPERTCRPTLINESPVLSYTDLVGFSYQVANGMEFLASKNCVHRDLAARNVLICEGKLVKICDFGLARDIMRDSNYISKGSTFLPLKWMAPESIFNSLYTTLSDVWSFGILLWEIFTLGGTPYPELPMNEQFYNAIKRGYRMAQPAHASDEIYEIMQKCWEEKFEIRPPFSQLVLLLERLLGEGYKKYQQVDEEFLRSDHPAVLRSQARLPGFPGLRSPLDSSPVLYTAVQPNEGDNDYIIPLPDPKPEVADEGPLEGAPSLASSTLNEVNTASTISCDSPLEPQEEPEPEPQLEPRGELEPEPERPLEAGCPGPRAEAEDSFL

WPPCVEVQLRPVQVRKIEIVRKKP [Peptide 8]
Receptor competing activity, PDGF-BB binding (in words) (PDGF-β receptor [1]; [6]): nearly devoid of activity | IC50 (PDGF-β receptor [1]; [7]): > 150 µM

KIEIVRKKPIFKKATVTLEDHLASKC [Peptide 1]
IC50 (PDGF-β receptor [1]; [7]): > 150 µM

EAFIKWLVRNKVP [*20, reference compound]
IC50 (PDGF-β receptor [1]; [8]): > 150 µM

CC[C@H](C)[C@H](NC(=O)[C@H](CCC(=O)O)NC(=O)[C@H](Cc1c(Sc2ccccc2[N+](=O)[O-])[nH]c2ccccc12)NC(=O)[C@@H](NC(=O)[C@H](CC(C)C)NC(=O)[C@H](Cc1ccccc1)NC(=O)[C@H](CC(N)=O)NC(=O)[C@H](C)N)C(C)C)C(=O)N[C@H](C(=O)N[C@@H](CCCNC(=N)N)C(=O)N[C@@H](CCCCN)C(=O)N[C@@H](CCCCN)C(=O)N1CCC[C@H]1C(=O)O)C(C)C [*16NPS] (H-ANFLV[X2]EIVRKKP-OH; N-terminus and C-terminus assumed)
IC50 (PDGF-β receptor [1]; [8]): < 30 µM | Receptor competing activity, PDGF-BB binding (in words) (PDGF-β receptor [1]; AG1518 cells, general text statements on competing activity placed here, listed as 16 NPS): more active as an antagonist than peptide 16 | Receptor competing activity, PDGF-BB binding (in words) (PDGF-β receptor [1]; AG1518 cells, general text statements on competing activity placed here, listed as 16NPS): increased activity as an antagonist

EGF: ligand of the EGF receptor, used as control growth factor
[3H]thymidine incorporation, ligand alone [2]: 2591 cpm

ANFLVWPPCVEVQLRPVQVRKIEIVRKKP [Peptide 7]
IC50 (PDGF-α receptor; α receptor, read-out: 50% competition for receptor binding): ~6 µM | IC50 (PDGF-β receptor [1]; [7]): < 30 µM | IC50 (PDGF-β receptor [1]; β receptor, read-out: 50% competition for receptor binding): ~6 µM

PDGF-AA: platelet derived growth factor A chain homodimer
[3H]thymidine incorporation, ligand alone [2]: 677 cpm | Stimulation of [3H]thymidine incorporation by ligand ([2]; no peptide, versus unstimulated control): lower stimulation

CRPTQVQLRPVQVRKIEIVRKKP [Peptide 2]
IC50 (PDGF-β receptor [1]; [7]): > 150 µM

ANFLVWEIVRKKP [Peptide 16]
Competition for binding of 125I-EGF to the EGF receptor (in words) (EGF receptor [3]): none of peptides 16, 16T, 20 and 20T compete | Effect on ligand stimulated [3H]thymidine incorporation (in words) [2]: did inhibit PDGF-AA and PDGF-BB induced mitogenicity, but also EGF induced mitogenicity | [3H]thymidine incorporation, Control [2]: 241 cpm | [3H]thymidine incorporation, EGF [2]: 216 cpm | [3H]thymidine incorporation, PDGF-AA [2]: 242 cpm | [3H]thymidine incorporation, PDGF-BB [2]: 281 cpm | Receptor competing activity, PDGF-AA binding (in words) (PDGF-α receptor): marginal effect | Receptor competing activity, PDGF-AA binding (in words) (PDGF-α receptor; listed as 16*): very low activity | Amount of peptide giving complete inhibition of dimerization and autophosphorylation (PDGF-β receptor [4]; nearly complete for 16T, complete for 16, about 100 ng receptor, 100 ng PDGF-BB, 40 ul): 20 µg | Effect on dimerization and autophosphorylation (in words) (PDGF-β receptor [4]; peptide 20: concentrations up to 20 μg): intermediate effect | IC50 (PDGF-β receptor [1]; [8]): < 30 µM | Receptor competing activity, PDGF-BB binding (in words) (PDGF-β receptor [1]; [6]): maintained most of the receptor competing activity; also recorded: marginal effect

CC[C@H](C)[C@H](NC(=O)[C@H](Cc1ccccc1)NC(=O)[C@H](C)NC(=O)[C@@H](N)CCC(=O)O)C(=O)N[C@@H](CCCCN)C(=O)N[C@@H](Cc1c(-c2ccc(SC)cc2)[nH]c2ccccc12)C(=O)N[C@@H](CC(C)C)C(=O)N[C@H](C(=O)N[C@@H](CCCNC(=N)N)C(=O)N[C@@H](CC(N)=O)C(=O)N[C@@H](CCCCN)C(=O)N[C@H](C(=O)N1CCC[C@H]1C(=O)O)C(C)C)C(C)C [*20T, reference compound]
Competition for binding of 125I-EGF to the EGF receptor (in words) (EGF receptor [3]): none of peptides 16, 16T, 20 and 20T compete | Effect on ligand stimulated [3H]thymidine incorporation (in words) [2]: some non specific inhibition activity | [3H]thymidine incorporation, Control [2]: 456 cpm | [3H]thymidine incorporation, EGF [2]: 515 cpm | [3H]thymidine incorporation, PDGF-AA [2]: 489 cpm | [3H]thymidine incorporation, PDGF-BB [2]: 836 cpm | Receptor competing activity, PDGF-AA binding (in words) (PDGF-α receptor): did not compete for binding | Effect on EGF induced autophosphorylation and dimerization (in words) (EGF receptor [5]): no effect whatsoever | Effect on PDGF induced autophosphorylation and dimerization (in words) (PDGF receptors): no effect whatsoever | Receptor competing activity, PDGF-BB binding (in words) (PDGF-β receptor [1]; [6]): did not compete for binding
